This is an account of results in ChEMBL document CHEMBL2146416 (Bioorg Med Chem, 2012).

In this test the target is 4-aminobutyrate aminotransferase, mitochondrial (Sus scrofa, UniProt P80147). The test is described as follows: Competitive inhibition of pig GABA aminotransferase using alpha-ketoglutarate as substrate by SSADH-coupled assay.
Sequence of 4-aminobutyrate aminotransferase, mitochondrial (P80147 whole entry): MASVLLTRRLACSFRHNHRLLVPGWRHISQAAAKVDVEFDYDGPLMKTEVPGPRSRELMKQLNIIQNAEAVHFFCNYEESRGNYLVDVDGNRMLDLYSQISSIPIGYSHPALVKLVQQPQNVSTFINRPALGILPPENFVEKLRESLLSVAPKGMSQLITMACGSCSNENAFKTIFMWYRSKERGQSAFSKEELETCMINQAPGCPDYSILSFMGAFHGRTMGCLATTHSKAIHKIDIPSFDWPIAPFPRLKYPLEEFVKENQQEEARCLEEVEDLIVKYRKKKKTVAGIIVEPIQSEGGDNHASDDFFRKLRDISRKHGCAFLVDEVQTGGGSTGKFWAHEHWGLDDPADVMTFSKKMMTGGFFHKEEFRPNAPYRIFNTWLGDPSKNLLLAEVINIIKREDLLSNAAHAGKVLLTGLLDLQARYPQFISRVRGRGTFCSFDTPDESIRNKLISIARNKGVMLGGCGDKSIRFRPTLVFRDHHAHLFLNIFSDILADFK
Broadly, the Ki is the dissociation constant of the complex between target and ligand, obtained from inhibition or displacement. Higher therefore signals lower affinity. With `NCc1ccc(C(=O)O)o1`, affinity was put at a Ki of 1.4 mM.
`NCc1ccc(C(=O)O)s1` showed a Ki of 2.49 mM.
In turn, `NCc1ccc(C(=O)O)[nH]1` yielded an inhibition constant Ki of 2.14 mM. This Ki and that of the compound before are within 1.5-fold of each other.
For the compound `NCc1coc(C(=O)O)c1`, the Ki amounted to 1.64 mM.
Turning to `NCc1csc(C(=O)O)c1`, the inhibition constant (Ki) stood at 1.35 mM.
With `NCc1c[nH]c(C(=O)O)c1`, the Ki worked out at 1.59 mM.
Regarding `NCc1cocc1C(=O)O`, affinity was put at a Ki of 2.27 mM.
The compound `NCc1cscc1C(=O)O` came in with a Ki of 2.86 mM.
